The values below come from US4874526A, “Treatment of water” (Ciba-Geigy Corporation, priority 1981, dated 1989).

Structures are written as SMILES. Where two headings read alike, the source gives them in different places.

A short description of series [1]: Standard Ross-Miles foam test. The series is classed as physicochemical. The settings on record: 0.05%; for foam production: compared with S or 22.
Series [2] deals with mixed culture of bacteria. The series can be described thus: Minimum concentration required to kill a given number of organisms (MKC), mixed culture of slime-forming bacteria, 5 hours exposure. Format: cell-based. As for the experimental part:
The effect of the number of organisms present on the biological activity of tri-n-butyl tetradecyl phosphonium chloride was compared with that for various quaternary ammonium compounds. This was done by measuring the MKC value i.e. the minimum concentration (expressed in ppm active ingredient) of chemical required to kill a given number or organisms. In the test carried out, a suspension of a mixed culture of bacteria containing the following slime-forming organisms:
Proteus vulgaris was diluted to give suspensions containing 10^6 /ml (A), 10^5 /ml (B) and 10^4 /ml (C) bacteria. These suspensions were then exposed to varying concentrations of the biocides for 5 hours and the MKC value measured.

Series [3] relates to Tribonema aequale. The series can be described thus: Algal growth inhibition (MIC), strain B (Example 7). Format: cell-based. As for the experimental part:
(§1) The algae was diluted (1 to 200) in further algae medium and the phosphonium compounds added to give final concentrations of 1, 2.5, 3.4 and 6.8 ppm active ingredient. The algal suspensions were then incubated in a shaking water bath at 18° C., with a daily cycle of 14 hours light and 10 hours darkness. The suspensions were assessed visually for growth of algae and the Minimum Inhibition Concentration (MIC) was recorded as the lowest concentration of product at which there was no growth for each algal strain. A similar experiment was also carried out using a mixed algal culture including strains a to d together with the following strains:
(§2) The activity of the phosphonium compounds listed below against three strains of algae is determined according to the procedure set out in example 5.

For series [4], the system named is Haematococcus lacustris. The series can be described thus: Algal growth inhibition (MIC), strain C (Example 7). The series is classed as cell-based. As for the experimental part: as §1
The activity of the phosphonium compounds listed below against three strains of algae is determined according to the procedure set out in example 5. The three strains of algae are:
Haematococcus lacustris (C)

Series [5] can be described thus: Surface tension of dilute aqueous solutions (Example 2). The series is classed as physicochemical. Conditions: FIG. 8, in comparison with 22. The method, then:
The surface activity of the following compounds was measured by determining the surface tension of dilute aqueous solutions of the chemicals: […]

Series [6] has as its system Scenedesmus obliquus. The series can be described thus: Algal growth inhibition (MIC), strain A (Example 7). Format: cell-based. Conditions: Tetradesmus obliquus. As for the experimental part:
as §1, §2

For series [7], the system named is Oscillatoria geminata. The series can be described thus: Algal growth inhibition (MIC), strain a (Example 5). Format: cell-based. Conditions: Jaaginema geminatum. The method, then: (§3) Cultures of the following strains of algae were grown in algae nutrient medium over a period of 14 days:
(a) Oscillatoria geminata
as §1, with “strains: […]” for “strains:”

Series [8] deals with Phormidium foveolarum. The series can be described thus: Algal growth inhibition (MIC), strain b (Example 5). The series is classed as cell-based. The settings on record: Nodosilinea foveolarum. The method, then: as §3
(b) Phormidium foveolarum
as §1, with “strains: […]” for “strains:”

Series [9] in a line: Reduction of the surface tension of water (Example 6). The series is classed as physicochemical. The settings on record: distilled water 72.8 dynes/cm. As for the experimental part: The effect of respective test compounds on the surface tension of water was also determined, the results being shown in the following Table:
Reduction of the surface tension.

Series [10] concerns Chlorella vulgaris. The series can be described thus: Algal growth inhibition (MIC), strain c (Example 5). Format: cell-based. The method, then: as §3
as §1, with “strains: […]” for “strains:”

The subject of series [11] is mixed algal culture. The series can be described thus: Algal growth inhibition (MIC), mixed algal culture (Example 5). Format: cell-based. The method, then:
as §1
In this experiment the concentrations of phosphonium compounds present were 2, 5, 7.5 and 10 ppm.

Series [12] relates to Scenedesmus spec. Kind of series: Algal growth inhibition (MIC), strain d (Example 5). Format: cell-based. As for the experimental part:
as §3
as §1, with “strains: […]” for “strains:”

Series [13] has as its system germs. Kind of series: Survival rate of germs in circulation systems with cooling tower. The settings on record: 3 h, 20 ppm active ingredient, read-out: Survival rate of germs 3h after biocide addition. The method, then:
The compounds below were tested in circulation systems, set up on a roof, and consisting of the following:
1. A plastic barrel having a volume of 113 liters.
2. A Siemens pump (21 liters/minute delivery at a delivery hight of 3 meters).
3. A cooling tower with Oreogn pine heartwood, oak, spruce, asbestos cement and PVC panels.
120-124 liters of make-up water were added daily to achieve a half-life in the system of about one day.
The systems were inoculated naturally with airborne dust, spores and pollen.
The systems were treated with compound to be tested on the first day then on day 7, day 21 and over 45 days. The number of germs/ml of water in the system is measured before and 3 hours after addition of the compound being tested.
The germ count was carried out by standard serial dilution and plating out on Agar nutrient and, afer incubation, counting the bacterial colonies present on the surface.
In each case the dosage of compound added was 20 ppm active ingredient.

Series [14] in a line: Foaming in the cooling system (Example 6). Format: physicochemical.
The subject of series [15] is algae. Kind of series: Anti-algal effect, algae in general. Format: cell-based. The settings on record: compared with triphenyl-dodecyl phosphonium chloride. The text has this: The anti-algal effect of the respective test compounds was also examined. […] Thus, the compound of the invention when used in an amount of 1 ppm inhibited the algal strains chlorella vulgaris snd scenedesmus spec. (which strains are very significant strains in cooling systems) where 2, 5 or 10 ppm was required when using triphenyl-dodecyl phosphonium chloride.

Where [16] appears, read: read-out: MKC, A: 10^6/ml bacteria, ppm active ingredient.
The mark [17] stands for this setting: read-out: MKC, B: 10^5/ml bacteria, ppm active ingredient.
Setting [18] is: read-out: MKC, C: 10^4/ml bacteria, ppm active ingredient.

For `CCCCCCCCCC[N+](C)(C)CCCCCCCCCC.[Cl-]` [Dimethyl di-n-decyl ammonium chloride, dimethyl di-n-decyl ammonium chloride, reference compound], the figures for the “Foam Height” value in [1] (1 minute), in [1] (30 minutes) and in series [1] (60 minutes) were 45 mm, 40 mm and 38 mm, respectively. For the same compound, the MBC in [2] (setting [16]) worked out at 25 µg/mL; in [2] (setting [17]), 25 µg/mL; in series [2] (setting [18]), 12.5 µg/mL.
For orientation: MIC means the lowest concentration that inhibits growth of the organism. Take `CCCCCCCCCCCC[P+](CCCC)(CCCC)CCCC.[Cl-]` [Tri-n-butyl dodecyl phosphonium chloride, tri-n-butyl dodecyl phosphonium chloride]: the MIC in series [3] (strain B, read-out: MIC) is 1 µg/mL; in series [4] (strain C, read-out: MIC) it was 1 µg/mL; in series [6] (strain A, read-out: MIC), 2 µg/mL. The “Foam Height” value in series [1] (1 minute) came out at 18 mm; in series [1] (30 minutes) it was 6 mm; in series [1] (60 minutes) it was 4 mm. In addition, the foam production entry in [1] is “much less foam than S or 22”. In addition, the surface activity result in series [5] is listed as “high surface activity”.
`CCCCCCCCCCCC[P+](c1ccccc1)(c1ccccc1)c1ccccc1.[Cl-]` [Triphenyl dodecyl phosphonium chloride, triphenyl dodecyl phosphonium chloride, reference compound]: the MIC in series [7] was found to be 2.5 µg/mL; in series [3], 3 µg/mL; in series [8] it was 1 µg/mL; in series [10] it was 2.5 µg/mL; in series [11] it was 7.5 µg/mL; in series [4], 3 µg/mL. For the same compound, the MIC in series [6] is 3 µg/mL; in series [12] it was 3.4 µg/mL. Also, the Surface tension was determined as 60.2 dynes/cm in series [9] (5 mg/l); 59.5 dynes/cm in [9] (10 mg/l); 57.9 dynes/cm in [9] (15 mg/l); 56.4 dynes/cm in series [9] (20 mg/l); 53.7 dynes/cm in series [9] (30 mg/l). In addition, the viability at 20 ppm in series [13] (0 d) is 3%; in [13] (7 d), 72%; in series [13] (21 d), 110%; in [13] (>45 d), 130%. In addition, the “foaming in the cooling system” value in series [14] is recorded as “some foaming problems were encountered”.
As to `CCCCCCCCCCCCCC[P+](c1ccccc1)(c1ccccc1)c1ccccc1.[Br-]` [Triphenyl tetradecyl phosphonium bromide, reference compound], the MIC in series [3] (strain B, read-out: MIC) was 3 µg/mL; in [4] (strain C, read-out: MIC), 6 µg/mL; in series [6] (strain A, read-out: MIC), 6 µg/mL.
As to `CCCCCCCCCCCCCC[P+](CCCC)(CCCC)CCCC.[Br-]` [tri-n-butyl tetradecyl phosphonium bromide], the MIC in series [7] (strain a, 18° C., ppm active ingredient, read-out: MIC) worked out at 2.5 µg/mL; in series [3] (strain B, read-out: MIC), 0.3 µg/mL; in [8] (strain b, 18° C., ppm active ingredient, read-out: MIC) it was 1 µg/mL; in [10] (strain c, 18° C., ppm active ingredient, read-out: MIC), 1 µg/mL; in [11] (mixed culture, concentrations 2, 5, 7.5 and 10 ppm, read-out: MIC), 2 µg/mL; in series [4] (strain C, read-out: MIC), 2 µg/mL. Further, the MIC in series [6] (strain A, read-out: MIC) amounted to 2 µg/mL; in series [12] (strain d, 18° C., ppm active ingredient, read-out: MIC) it was 1 µg/mL.
Turning to `CCCCCCCCCCCCCC[P+](CCCC)(CCCC)CCCC.[Cl-]` [tri-n-butyl tetradecyl phosphonium chloride], the MIC in series [3] is 2 µg/mL; in series [11], 5 µg/mL. Besides, the Surface tension came to 52.9 dynes/cm in [9] (5 mg/l); 48.8 dynes/cm in series [9] (10 mg/l); 47.1 dynes/cm in [9] (15 mg/l); 45.6 dynes/cm in [9] (20 mg/l); 42.3 dynes/cm in [9] (30 mg/l). The “Foam Height” value in [1] (1 minute) was 33 mm; in series [1] (30 minutes), 19 mm; in series [1] (60 minutes) it was 10 mm. Moreover, the foam production entry in [1] is reported as “much less foam than S or 22”. Besides, the activity against algae entry in series [15] was “more active against algae than triphenyl-dodecyl phosphonium chloride”. Besides, the surface activity result in series [5] is on record as “high surface activity”. Moreover, the viability at 20 ppm in series [13] (0 d) stood at 1%; in series [13] (7 d), 9%; in series [13] (21 d), 6%; in series [13] (>45 d) it was 8%. Also, the MBC in series [2] (setting [16]), in series [2] (setting [17]) and in series [2] (setting [18]) was 12.5 µg/mL throughout.
